*1 amine or outer side, *2 acyl side, *3 side chain or, on linkers, in order; H or OH if unused. Where a SMILES comes first, the peptide text is derived from it. The star is where a group is joined. C18 diacid = O=C(O)CCCCCCCCCCCCCCCCC(=O)*; γGlu = O=C(O)[C@H](CCC(=O)[*:2])N[*:1]

For one data set, the target named is T1, human amylin receptors (Homo sapiens, UniProt O60896+P30988).
T1 sequence (P30988 25-474): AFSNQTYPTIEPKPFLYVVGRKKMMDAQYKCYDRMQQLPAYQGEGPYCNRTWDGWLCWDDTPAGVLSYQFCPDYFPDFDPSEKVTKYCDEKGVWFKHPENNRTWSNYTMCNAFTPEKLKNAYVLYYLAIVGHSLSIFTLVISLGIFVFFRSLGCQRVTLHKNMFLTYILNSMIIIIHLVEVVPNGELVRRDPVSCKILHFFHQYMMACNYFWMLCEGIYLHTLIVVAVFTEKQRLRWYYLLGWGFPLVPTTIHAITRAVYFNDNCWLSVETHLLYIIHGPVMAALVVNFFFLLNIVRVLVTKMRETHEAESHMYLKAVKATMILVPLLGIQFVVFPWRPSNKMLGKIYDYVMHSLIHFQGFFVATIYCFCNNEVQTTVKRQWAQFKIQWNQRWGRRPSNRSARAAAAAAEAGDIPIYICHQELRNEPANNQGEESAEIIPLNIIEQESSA
T1 sequence (O60896 24-148 partner): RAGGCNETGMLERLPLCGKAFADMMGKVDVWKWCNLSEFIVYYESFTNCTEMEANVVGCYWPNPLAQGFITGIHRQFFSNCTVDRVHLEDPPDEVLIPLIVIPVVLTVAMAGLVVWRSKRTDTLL
Nature of the data set: Luciferase assay of amylin (amylin receptor/CRE-luc cell line).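 Further: agonist potency from luminescence of cAMP response element-driven luciferase, EC50 derived from a standard curve of signal versus compound concentration.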 Format: cell-based. The following applies: stably transfected amylin receptor/CRE-luc CHO cells (CHO-K1/Gal5/AMY3), 24 hours incubation, luciferase readout.

Data set [1] is described as follows: Heat accelerated stability assay under a neutral condition. Format: physicochemical. The conditions noted are these: pH about 7.4, 40°C; for Changes in characteristics or properties, 0d / Changes in characteristics or properties, 7d: 1 mg/mL, phosphate; for Concentration change (7d-0d)/%: Day 7 vs Day 0, reversed phase chromatography; for Purity Change% (7d-0d) / Purity Change% (26d-0d): purity from reversed phase chromatography-214 nm; for Purity Change% (7d-0d): Day 7 vs Day 0; for Purity Change% (26d-0d): Day 26 vs Day 0. Here is the method: The lyophilized powder (1 mg/mL) of calcitonin analogues or derivatives prepared in accordance with the method of Example 1 were mixed with sodium dihydrogen phosphate (1.42 mg/mL) and dissolved in ultrapure water in the indicated mass-volume ratios. After adjusting pH to about 7.4 with hydrochloric acid/sodium hydroxide, the solution was filtered into a sterilized vial in a clean bench using a 0.22 µm sterile filter. The vial was then capped and placed into the stability test chamber at 40°C. Detections were made on Days 7 (7d) and 26 (26d), and during the assay, changes in the characteristics and properties of the polypeptides were observed and recorded. The sample was then centrifuged for 3 min at 10000 rpm at 4°C, and the supernatant was transferred to a liquid phase sample vial for detecting the concentration and purity of the polypeptides using liquid phase chromatography described as below, wherein the concentration of the polypeptide = peak area/injection volume/extinction coefficient/60×flow rate, and the purity of the polypeptide = target peak area/total peak area× 100%.
Conditions of the reversed phase chromatography Flow rate: 1.0 ml/min; Autosampler temperature: 15°C; Column temperature: 25°C; Detection wavelengths: 280 nm and 214 nm; Mobile phase A: 100% H2O+0.05% TFA; Mobile phase B: 100% ACN; and Gradient of elution listed in Table 4: Table 4. Listing of the gradient of elution in the liquid phase chromatography
Results were shown below in Tables 5, 6, and 7. A difference of more than 5% in content as compared with the initial value was typically assumed (for example, as prescribed by the Chinese Pharmacopeia (2020 Edition)) to be a significant change. Within a reasonable margin of error, a decrease of less than 1% from the initial value to the detected content is denoted as "no change" below. Table 5. Changes in characteristics or properties in the heat accelerated stability assay

From the text for human amylin receptors: The objective of this assay is to test the activity or potency of calcitonin analogues or derivatives on human amylin receptors in vitro using a luciferase assay.
Using the standard protocol, CHO-K1/Gal5/AMY3 cells (purchased from GenScript, with the calcitonin receptor and the receptor activity modifying peptide (RAMP) constructed already) were transfected with a plasmid containing a luciferase expression cassette driven by multiple copies of cAMP response elements (CREs). The cells were cultured in an F12 medium containing 200 ug/mL Zeocin, 2 ug/mL puromycin, 100 ug/mL hygromycin, and 400 ug/mL G418 to afford a stably transfected amylin receptor/CRE-luc cell line.
To each well of a white 96-well plate was added 50 µL of the tested sample solution at a respective concentration.
The stably transfected amylin receptor/CRE-luc CHO cells were resuspended in the growth medium at a certain density, and 50 µL of the cell suspension was added at a density of about 20000 cells per well to the white 96-well plate containing the tested sample solution. After incubation of 24 hours at 37°C and 5% CO2, 100 µL of a Luciferase substrate was added to each well, incubated for 3 minutes, and finally was tested for luminescence on SpectraMax L (Molecular Devices) with the software SoftMax Pro 7.0.3 GxP. A standard curve was plotted using the fluorescent intensities for calculation of EC50.

A word on the EC50: it is the concentration at which the effect is half-maximal. Read a low EC50 as greater potency. On human amylin receptors, `CC(C)C[C@H](NC(=O)[C@H](CCCNC(=N)N)NC(=O)CNC(=O)[C@H](CC(C)C)NC(=O)[C@@H](NC(=O)[C@H](C)NC(=O)[C@@H](NC(=O)[C@H](CO)NC(=O)[C@H](CC(C)C)NC(=O)[C@H](CCC(N)=O)NC(=O)[C@H](CO)NC(=O)[C@H](C)NC(=O)CC[C@H](NC(=O)CCCCCCCCCCCCCCCCC(=O)O)C(=O)O)[C@@H](C)O)C(C)C)C(=O)N[C@@H](CO)C(=O)N[C@@H](CC(=O)O)C(=O)N[C@@H](CCC(=O)O)C(=O)N[C@@H](CC(C)C)C(=O)N[C@@H](Cc1c[nH]cn1)C(=O)N[C@@H](CCCNC(=N)N)C(=O)N[C@@H](CC(C)C)C(=O)N[C@@H](CCC(N)=O)C(=O)N[C@@H](CC(=O)O)C(=O)N[C@@H](Cc1ccc(O)cc1)C(=O)N1CCC[C@H]1C(=O)N[C@@H](CCCNC(=N)N)C(=O)N[C@H](C(=O)N[C@@H](CC(=O)O)C(=O)N[C@H](C(=O)NCC(=O)N[C@@H](CO)C(=O)NCC(=O)N[C@@H](CO)C(=O)N1CCC[C@H]1C(N)=O)C(C)C)[C@@H](C)O` [M39] ({C18 diacid-γGlu}-ASQLSTAVLGRLSDELHRLQDYPRTDVGSGSP-NH2) came in with a half-maximal effective concentration (EC50) of 0.016 nM. Further, in data set [1], the “Changes in characteristics or properties, 0d” value is recorded as “Clear”; the “Changes in characteristics or properties, 7d” value was “Clear”; the “Concentration change (7d-0d)/%” value is “No change (a decrease of less than 1% from the initial value to the detected content is denoted as "no change")”; the “Purity Change% (7d-0d)” value was “No change (a decrease of less than 1% from the initial value to the detected content is denoted as "no change")”. Also, in data set [1], the “Purity Change% (26d-0d)” value is recorded as -3.3%.

The molecule `CC(C)C[C@H](NC(=O)[C@H](CCCNC(=N)N)NC(=O)CNC(=O)[C@H](CC(C)C)NC(=O)[C@@H](NC(=O)[C@H](C)NC(=O)[C@@H](NC(=O)[C@H](CO)NC(=O)[C@H](CC(C)C)NC(=O)[C@H](CCC(N)=O)NC(=O)[C@H](CO)NC(=O)[C@H](C)NC(=O)[C@H](CCC(=O)O)NC(=O)CCCCCCCCCCCCCCCCC(=O)O)[C@@H](C)O)C(C)C)C(=O)N[C@@H](CO)C(=O)N[C@@H](CC(=O)O)C(=O)N[C@@H](CCC(=O)O)C(=O)N[C@@H](CC(C)C)C(=O)N[C@@H](Cc1c[nH]cn1)C(=O)N[C@@H](CCCNC(=N)N)C(=O)N[C@@H](CC(C)C)C(=O)N[C@@H](CCC(N)=O)C(=O)N[C@@H](CC(=O)O)C(=O)N[C@@H](Cc1ccc(O)cc1)C(=O)N1CCC[C@H]1C(=O)N[C@@H](CCCNC(=N)N)C(=O)N[C@H](C(=O)N[C@@H](CC(=O)O)C(=O)N[C@H](C(=O)NCC(=O)N[C@@H](CO)C(=O)NCC(=O)N[C@@H](CO)C(=O)N1CCC[C@H]1C(N)=O)C(C)C)[C@@H](C)O` [M42] ({C18 diacid}-EASQLSTAVLGRLSDELHRLQDYPRTDVGSGSP-NH2) came in with a concentration for a half-maximal effect (EC50) on human amylin receptors of 0.016 nM. Also, in data set [1], the “Changes in characteristics or properties, 0d” value is “Clear”; the “Changes in characteristics or properties, 7d” value was “Clear”; the “Concentration change (7d-0d)/%” value was -3.344%; the “Purity Change% (7d-0d)” value is on record as “No change (a decrease of less than 1% from the initial value to the detected content is denoted as "no change")”. Also, the “Purity Change% (26d-0d)” value in data set [1] was -2.93%.

Source of the values: EP4692114A1, “CALCITONIN ANALOGUE, AND DERIVATIVE THEREOF AND USE THEREOF” (Hangzhou Sciwind Biosciences Co., Ltd., priority 2023, dated 2024).
